Source: US20230118142A1, “AGENTS FOR USE IN THE TREATMENT OF TISSUE DAMAGE” (UCL BUSINESS LTD, priority 2020, published 2023)

Tests used:
Parameters in all cases: The final concentrations were 0.73 μM native pentameric CRP; from tissue
CRP [1] = biological target: T1, CRP (Homo sapiens, UniProt P02741); test: Roche immunoturbidimetric assay: pure CRP; assay type: binding; settings: pure CRP in TC buffer; read-out: IC50 (μM), SD; inhibition of Roche CRP immunoreactivity
T1 sequence (P02741 19-224): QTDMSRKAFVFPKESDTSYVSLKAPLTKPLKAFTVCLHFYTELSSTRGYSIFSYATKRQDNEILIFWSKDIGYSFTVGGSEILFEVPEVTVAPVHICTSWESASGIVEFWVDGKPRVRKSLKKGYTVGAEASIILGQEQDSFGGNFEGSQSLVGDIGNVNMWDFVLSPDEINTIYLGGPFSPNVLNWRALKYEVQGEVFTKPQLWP
Method: (i) Human CRP at ˜90 μg/ml (3.9 μM monomer or 0.78 μM pentamer) in TC buffer was prepared from a stock solution; a 75 μl aliquot was used in the assay.
(ii) Compounds were prepared from stock solutions at up to 10 mM in TC (labelled S1). They were serially diluted with TC buffer (100 μl ligand+200 μl TC) to provide up to 9 dilutions, S2-S10. A TC buffer control (S0) was included in each assay.
(iii) A 15 μl volume of each ligand solution was incubated with 75 μl of CRP for 1 h at 37° C. The final concentrations were CRP pentamer=0.73 μM, ligands S1-S10=625-0.03 μM, corresponding to ligand:CRP pentamer ratios of 853-0.04.
(iv) CRP concentrations were measured by the Roche microparticle-enhanced immunoturbidimetric assay (10) on the COBAS MIRA autoanalyser, and results expressed as a percentage of the CRP control.
(v) Data were plotted using Sigmaplot (V14) using the 4 parameter logistic curve y=min+(max−min)/(1+(x/EC50)^−Hill slope) to calculate EC50.
(vii) All compounds were assayed in comparison with a highly purified preparation of BPC8, that was prepared by Carbogen AMCIS AG, dissolved in sterile water and diluted into TC buffer as required.
The immunoturbidimetric CRP assay on the Roche COBAS MIRA Plus autoanalyser, utilises two different sized microparticles that are covalently coupled with two different monoclonal antibodies, which recognise different CRP epitopes. The assay was developed by Roche for clinical measurement of CRP serum and plasma with high sensitivity and a very wide dynamic range. Serendipitously, one of the two antibodies binds to an epitope present on the ligand binding B-face of CRP. Thus, when the binding pocket is occupied by ligand and, especially, when the B-face is occluded by the B-face to B-face interaction of two native CRP pentamers produced by cross linking via our unique bivalent ligands, the assay fails to detect the CRP. In contrast, the CRP is all detected and assayed normally by other assays that disrupt the crosslinking and/or use antibodies which recognise different, non-occluded, epitopes. Inhibition of CRP recognition in the Roche assay is thus a convenient tool to monitor the efficacy and potency of complex formation between our unique ligands and CRP.

CRP [2] = biological target: T1, CRP; test: Immobilised phosphocholine plate assay (125I-CRP binding); settings: read-out: IC50 for inhibition of 125I-CRP binding to immobilised phosphocholine
Method: (i) Phosphocholine was immobilised on Greiner NHS-activated microtitre plates by incubation with 4-aminophenyl-1-phosphocholine. Remaining active sites were blocked by incubation with 4% w/v BSA in TC buffer (TCB).
(ii) Human CRP at 1 μg/ml in TC buffer was spiked with ^125I-labelled CRP to provide 10^6 cpm/ml.
(iii) Compounds were prepared from up to 10 mM stock solutions by dilution in TC buffer to 0.5 mM (labelled S1). Serial dilutions were prepared by diluting 100 μl ligand solution with 200 μl TC buffer (S2-S10). A ligand-free control was also used (SO, TC only).
(iv) A 100 μl volume of CRP solution was incubated with 10 μl of each compound (S1-S10, SO) for 1 h at room temperature without stirring, to provide final ligand concentrations across the range 45.5 μM-6.9 nM with a ligand:CRP monomer molar ratio of 1151-0.06. In some cases, single fixed ligand concentrations were also assayed in comparison with PC.
(v) A 100 μl volume of each CRP-ligand mixture was added to the plate wells and incubated for 2 h at room temperature. Solutions were then discarded and the plates washed with TCB buffer. Bound radioactivity was measured (1 min counts) using a gamma counter (Perkin Elmer Wizard 2470).
(vi) Data were plotted with Sigmaplot v14 software using the 4-parameter logistic curve y=min+(max−min)/(1+(x/EC50)^−Hill slope) to calculate IC50.

CRP [3] = biological target: T1, CRP; test: Size exclusion chromatography of CRP/ligand cross linking; assay type: binding; settings: CRP/ligand complex re-chromatographed in absence of free ligand
Method: (i) Ligands were diluted to 0.5 mM in TC buffer from up to 10 mM stocks. Serial dilutions were prepared as required. […]
(iii) The complex was chromatographed on a Superdex200 column (10/300 GL; 24 ml bed volume), connected to the ÅKTA100 Explorer HPLC system, and equilibrated and eluted in TC buffer at 0.5 ml/min. Eluates were monitored at 280 nm and fractions (0.5 ml) collected as required.
Size exclusion chromatography on a Superdex 200 column equilibrated and eluted with TC buffer pH 8.0, and calibrated with standard globular marker proteins and with human CRP, the native CRP pentamer (Mr 115 kDa) eluted at 13.9 ml (range 13.7-14.0 ml, n=10).

| Compound | IC50 (CRP [1]) | IC50 (CRP [2]) | Stable to rechromatography (CRP [3]) |
| --- | --- | --- | --- |
| O=C(CC(=O)NC(C(=O)O)[C@H]1CN2CCC1CC2)NC(C(=O)O)[C@H]1CN2CCC1CC2 (stereo partly drawn) [Compound P1d-1, 2-[(3R)-1-azabicyclo[2.2.2]octan-3-yl]-2-(2-{[[(3R)-1-azabicyclo[2.2.2]octan-3-yl](carboxy)methyl]carbamoyl}acetamido)acetic acid] | > 400 µM |  |  |
| O=P(O)(OCCCCCCOP(=O)(O)O[C@@H]1CN2CCC1CC2)O[C@@H]1CN2CCC1CC2 [Pk-025, Hexane-1,6-diyl di(S)-quinuclidin-3-yl) bis(hydrogen phosphate] | 1.08 µM | 0.28 µM |  |
| O=C(NC(C(=O)O)[C@H]1CN2CCC1CC2)C(=O)NC(C(=O)O)[C@H]1CN2CCC1CC2 (stereo partly drawn) [Compound P1d-0, 2-[(3R)-1-azabicyclo[2.2.2]octan-3-yl]-2-[({[(3R)-1-azabicyclo[2.2.2]octan-3-yl](carboxy)methyl}carbamoyl)formamido]acetic acid] | 0.97 µM |  |  |
| CC(C)(C/C=C/CC(C)(C)COP(=O)(O)O[C@@H]1CN2CCC1CC2)COP(=O)(O)O[C@@H]1CN2CCC1CC2 [Pk-032, di((S)-1-azabicyclo[2.2.2]octan-3-yl) (E)-2,2,7,7-tetramethyloct-4-ene-1,8-diyl bis(hydrogen phosphate)] | 0.72 µM |  |  |
| O=C(CCCC(=O)NC(C(=O)O)[C@H]1CN2CCC1CC2)NC(C(=O)O)[C@H]1CN2CCC1CC2 (stereo partly drawn) [Compound P1d-3, 2-[(3R)-1-azabicyclo[2.2.2]octan-3-yl]-2-(4-{[[(3R)-1-azabicyclo[2.2.2]octan-3-yl](carboxy)methyl]carbamoyl}butanamido)acetic acid] | > 400 µM |  |  |
| O=C(Cc1ccc(CC(=O)NC(C(=O)O)[C@H]2CN3CCC2CC3)cc1)NC(C(=O)O)[C@H]1CN2CCC1CC2 (stereo partly drawn) [Compound P2B-C, 2-[[2-[4-[2-[[carboxy-[(3R)-quinuclidin-3-yl]methyl]amino]-2-oxo-ethyl]phenyl]acetyl]amino]-2-[(3R)-quinuclidin-3-yl]acetic acid] | 2.69 µM |  |  |
| O=P(O)(OCCCCCCCOP(=O)(O)OC1CN2CCC1CC2)OC1CN2CCC1CC2 [Pk-026, Heptane-1,7-diyl di(S)-quinuclidin-3-yl) bis(hydrogen phosphate] |  | 0.18 µM |  |
| O=C(CCCCC(=O)NC(C(=O)O)C1CN2CCC1CC2)NC(C(=O)O)C1CN2CCC1CC2 [Compound P1d-4, 2-[(3R)-1-azabicyclo[2.2.2]octan-3-yl]-2-(8-{[[(3R)-1-azabicyclo[2.2.2]octan-3-yl](carboxy)methyl]carbamoyl}pentamido)acetic acid] | < 2 µM |  | Partial |
| O=C(CC(c1ccccc1)C(CC(=O)NC(C(=O)O)[C@H]1CN2CCC1CC2)c1ccccc1)NC(C(=O)O)[C@H]1CN2CCC1CC2 (single isomer, unassigned) [P2B-D peak1] | 0.66 µM |  | Yes |
| O=C(CCCCCCCC(=O)NC(C(=O)O)[C@H]1CN2CCC1CC2)NC(C(=O)O)[C@H]1CN2CCC1CC2 (stereo partly drawn) [Compound P1d-7, 2-[(3R)-1-azabicyclo[2.2.2]octan-3-yl]-2-(8-{[[(3R)-1-azabicyclo[2.2.2]octan-3-yl](carboxy)methyl]carbamoyl}octanamido)acetic acid] | > 400 µM |  |  |
| O=C(CCCCCC(=O)NC(C(=O)O)[C@H]1CN2CCC1CC2)NC(C(=O)O)[C@H]1CN2CCC1CC2 (stereo partly drawn) [Compound P1d-5, 2-[(3R)-1-azabicyclo[2.2.2]octan-3-yl]-2-(6-{[[(3R)-1-azabicyclo[2.2.2]octan-3-yl](carboxy)methyl]carbamoyl}hexanamido)acetic acid] | > 400 µM |  |  |
| O=P(O)(OCCCCCCCCCCOP(=O)(O)O[C@@H]1CN2CCC1CC2)O[C@@H]1CN2CCC1CC2 [Pk-027, Decane-1,10-diyl di(S)-quinuclidin-3-yl) bis(hydrogen phosphate] |  | 0.18 µM |  |
| CN(C)CCOP(=O)(O)OCCCCCCCCOP(=O)(O)OCCN(C)C [Dm-BPC8, bis(2-(dimethylamino)ethyl) octane-1,8-diyl bis(hydrogen phosphate), reference compound] | 127 µM |  |  |
| O=C(NC(C(=O)O)[C@H]1CN2CCC1CC2)NC(C(=O)O)[C@H]1CN2CCC1CC2 (stereo partly drawn) [Compound P2B-G, 2-[[-carboxy-[(3R)-quinuclidin-3-yl]methyl]carbamoylamino]-2-[(3R)-quinuclidin-3-yl]acetic acid] | 26.2 µM |  |  |
| O=C(CCCCCCC(=O)NC(C(=O)O)[C@H]1CN2CCC1CC2)NC(C(=O)O)[C@H]1CN2CCC1CC2 (stereo partly drawn) [Compound P1d-6, 2-[(3R)-1-azabicyclo[2.2.2]octan-3-yl]-2-[7-({[(3R)-1-azabicyclo[2.2.2]octan-3-yl](carboxy)methyl}carbamoyl)heptanamido]acetic acid] | 9.92 µM |  |  |
| O=C(CCC(=O)NC(C(=O)O)[C@H]1CN2CCC1CC2)NC(C(=O)O)[C@H]1CN2CCC1CC2 (stereo partly drawn) [Compound P1d-2, 2-[(3R)-1-azabicyclo[2.2.2]octan-3-yl]-2-[3-({[(3R)-1-azabicyclo[2.2.2]octan-3-yl](carboxy)methyl}carbamoyl)propanamido]acetic acid] | < 2 µM |  | Yes |
| C[N+]12CCC(CC1)[C@@H](C(NC(=O)CCCCC(=O)NC(C(=O)O)[C@H]1C[N+]3(C)CCC1CC3)C(=O)O)C2 (stereo partly drawn) [Compound P1d-4A, (3R)-3-{carboxy[5-({carboxy[(3R)-1-methyl-1-azabicyclo[2.2.2]octan-1-ium-3-yl]methyl}carbamoyl)pentanamido]methyl}-1-methyl-1-azabicyclo[2.2.2]octan-1-ium] | 1.43 µM |  |  |
| O=P(O)(OCCCCCCCCCOP(=O)(O)O[C@@H]1CN2CCC1CC2)O[C@@H]1CN2CCC1CC2 [Pk-028, Nonane-1,9-diyl di(S)-quinuclidin-3-yl) bis(hydrogen phosphate] |  | 0.16 µM |  |
| CC(C)(CCCCC(C)(C)COP(=O)(O)O[C@@H]1CN2CCC1CC2)COP(=O)(O)O[C@@H]1CN2CCC1CC2 [Pk-033, [(3S)-1-azabicyclo[2.2.2]octan-3-yloxy]({[8-({[(3S)-1-azabicyclo[2.2.2]octan-3-yloxy](hydroxy)phosphoryl}oxy)-2,2,7,7-tetramethyloctyl]oxy})phosphinic acid] | 0.59 µM |  |  |
